Measurements: ChEMBL document CHEMBL1821646, “Design and synthesis of a biotinylated probe of COX-2 inhibitor nimesulide analog JCC76” (Bioorg Med Chem Lett, 2011)

system: SK-BR-3; assay: Antiproliferative activity against human SKBR3 cells at 100 uM after 48 to 72 hrs by MTT assay; assay type: cell-based; settings: sk-br-3, 100 µM

SMILES	Activity
O=C(O)CCCC[C@@H]1SC[C@@H]2NC(=O)N[C@@H]21 [BIOTIN]	Non-toxic

system: SK-BR-3; assay: Antiproliferative activity against human SKBR3 cells after 48 to 72 hrs by MTT assay; assay type: functional, cell-based; settings: not given

SMILES	IC50
Cc1ccc(C)c(COc2cc(NC(=O)C3CCCCC3)ccc2N(CCCCCCNC(=O)CCCC[C@H]2SC[C@H]3NC(=O)N[C@H]32)S(C)(=O)=O)c1	2.21 µM
Cc1ccc(C)c(COc2cc(NC(=O)C3CCCCC3)ccc2NS(C)(=O)=O)c1	83.7 µM
CCCCCCN(c1ccc(NC(=O)C2CCCCC2)cc1OCc1cc(C)ccc1C)S(C)(=O)=O	81.7 µM

Further lines, results first:

IC50	SMILES
45.3 µM	Cc1ccc(C)c(COc2cc(NC(=O)C3CCCCC3)ccc2N(CCCCCCNC(=O)c2ccc3ccccc3c2)S(C)(=O)=O)c1
13 µM	COCCOCCN(c1ccc(NC(=O)C2CCCCC2)cc1OCc1cc(C)ccc1C)S(C)(=O)=O
6 µM	CCCCCC(=O)NCCCCCCN(c1ccc(NC(=O)C2CCCCC2)cc1OCc1cc(C)ccc1C)S(C)(=O)=O
